# From paper PMC5278571, “Optimal doses of caspofungin during continuous venovenous hemodiafiltration in critically ill patients” (Critical Care, 2017)
# Read-outs that look alike come from different tables or passages of the source.
# Assay: Pharmacokinetics of caspofungin during continuous venovenous hemodiafiltration (CVVHD)
# Format: in vivo, human
# Settings: for Vd / t½ / AUC0-24 Arterial / AUC0-24 Difference venous to arterial (%) / AUC0-24 Venous / Cl / Cmax / Ctrough: steady state, CVVHD; for t½: elimination
# Procedure: The aim of the present study was to describe the pharmacokinetics of caspofungin in 12 critically ill adult patients with suspected or proven invasive candidiasis who were receiving continuous venovenous hemodiafiltration (CVVHD).
# CVVHD was performed using a polysulfone hemofilter (Fresenius, Germany). Caspofungin was administered at usual doses. Pre-filter and post-filter blood, ultradiafiltrate, and urine samples were collected at steady state on day 3 or later, before the dose infusion started, and 0.5, 1, 1.5, 2, 4, 6, 8, and 24 h after the infusion ended.
structure (smiles),measurement,setting,value
CC[C@H](C)C[C@H](C)CCCCCCCCC(=O)N[C@H]1C[C@@H](O)[C@@H](NCCN)NC(=O)[C@@H]2[C@@H](O)CCN2C(=O)[C@H]([C@H](O)CCN)NC(=O)[C@H]([C@H](O)[C@@H](O)c2ccc(O)cc2)NC(=O)[C@@H]2C[C@@H](O)CN2C(=O)[C@H]([C@@H](C)O)NC1=O [caspofungin],Vd,"human, in vivo, iv, Mean ± SD of 12 patients, SD, read-out: Vd",16.4 ± 5.4 L
same,Mean concentration in the post-filter line compared with the pre-filter line,"n = 12 patients, rules out adsorption to the filter",slightly higher
same,t½,patient 1,27.4 h
same,AUC0-24 Arterial,patient 1,140.0 µg·h/mL
same,AUC0-24 Difference venous to arterial (%),patient 1,29%
same,AUC0-24 Venous,patient 1,180.0 µg·h/mL
same,Cl,patient 1,0.356 L/h
same,Cmax,patient 1,12500 ng/mL
same,Ctrough,patient 1,3470 ng/mL
same,Vd,patient 1,14.1 L
same,t½,patient 2,21.0 h
same,AUC0-24 Arterial,patient 2,88.3 µg·h/mL
same,AUC0-24 Difference venous to arterial (%),patient 2,20%
same,AUC0-24 Venous,patient 2,106.0 µg·h/mL
same,Cl,patient 2,0.567 L/h
same,Cmax,patient 2,7800 ng/mL
same,Ctrough,patient 2,2100 ng/mL
same,Vd,patient 2,17.1 L
same,t½,patient 3,18.8 h
same,AUC0-24 Arterial,patient 3,124.0 µg·h/mL
same,AUC0-24 Difference venous to arterial (%),patient 3,23%
same,AUC0-24 Venous,patient 3,152.0 µg·h/mL
same,Cl,patient 3,0.402 L/h
same,Cmax,patient 3,8800 ng/mL
same,Ctrough,patient 3,3100 ng/mL
same,Vd,patient 3,10.9 L
same,t½,patient 4,24.3 h
same,AUC0-24 Arterial,patient 4,65.4 µg·h/mL
same,AUC0-24 Difference venous to arterial (%),patient 4,18%
same,AUC0-24 Venous,patient 4,77.4 µg·h/mL
same,Cl,patient 4,0.765 L/h
same,Cmax,patient 4,6900 ng/mL
same,Ctrough,patient 4,1300 ng/mL
same,Vd,patient 4,26.8 L
same,t½,patient 5,16.5 h
same,AUC0-24 Arterial,patient 5,68.0 µg·h/mL
same,AUC0-24 Difference venous to arterial (%),patient 5,32%
same,AUC0-24 Venous,patient 5,90.0 µg·h/mL
same,Cl,patient 5,0.735 L/h
same,Cmax,patient 5,4800 ng/mL
same,Ctrough,patient 5,1500 ng/mL
same,Vd,patient 5,17.5 L
same,t½,patient 6,13.8 h
same,AUC0-24 Arterial,patient 6,102.0 µg·h/mL
same,AUC0-24 Difference venous to arterial (%),patient 6,5%
same,AUC0-24 Venous,patient 6,107.0 µg·h/mL
same,Cl,patient 6,0.683 L/h
same,Cmax,patient 6,10700 ng/mL
same,Ctrough,patient 6,2500 ng/mL
same,Vd,patient 6,13.6 L
same,t½,patient 7,13.6 h
same,AUC0-24 Arterial,patient 7,65.6 µg·h/mL
same,AUC0-24 Difference venous to arterial (%),patient 7,20%
same,AUC0-24 Venous,patient 7,78.8 µg·h/mL
same,Cl,patient 7,0.762 L/h
same,Cmax,patient 7,8300 ng/mL
same,Ctrough,patient 7,1600 ng/mL
same,Vd,patient 7,15.0 L
same,t½,patient 8,19.3 h
same,AUC0-24 Arterial,patient 8,100.0 µg·h/mL
same,AUC0-24 Difference venous to arterial (%),patient 8,13%
same,AUC0-24 Venous,patient 8,113.0 µg·h/mL
same,Cl,patient 8,0.499 L/h
same,Cmax,patient 8,9500 ng/mL
same,Ctrough,patient 8,2700 ng/mL
same,Vd,patient 8,13.9 L
same,t½,patient 9,14.3 h
same,AUC0-24 Arterial,patient 9,102.0 µg·h/mL
same,AUC0-24 Difference venous to arterial (%),patient 9,25%
same,AUC0-24 Venous,patient 9,127.0 µg·h/mL
same,Cl,patient 9,0.685 L/h
same,Cmax,patient 9,9200 ng/mL
same,Ctrough,patient 9,2300 ng/mL
same,Vd,patient 9,14.1 L
same,t½,patient 10,15.0 h
same,AUC0-24 Arterial,patient 10,121.0 µg·h/mL
same,AUC0-24 Difference venous to arterial (%),patient 10,17%
same,AUC0-24 Venous,patient 10,142.0 µg·h/mL
same,Cl,patient 10,0.578 L/h
same,Cmax,patient 10,12600 ng/mL
same,Ctrough,patient 10,2900 ng/mL
same,Vd,patient 10,12.5 L
same,t½,patient 11,26.2 h
same,AUC0-24 Arterial,patient 11,190.0 µg·h/mL
same,AUC0-24 Difference venous to arterial (%),patient 11,18%
same,AUC0-24 Venous,patient 11,224.0 µg·h/mL
same,Cl,patient 11,0.368 L/h
same,Cmax,patient 11,11500 ng/mL
same,Ctrough,patient 11,4000 ng/mL
same,Vd,patient 11,13.9 L
same,t½,patient 12,16.5 h
same,AUC0-24 Arterial,patient 12,60.1 µg·h/mL
same,AUC0-24 Difference venous to arterial (%),patient 12,24%
same,AUC0-24 Venous,patient 12,74.5 µg·h/mL
same,Cl,patient 12,1.165 L/h
same,Cmax,patient 12,8500 ng/mL
same,Ctrough,patient 12,1900 ng/mL
same,Vd,patient 12,27.7 L
same,Caspofungin in ultradiafiltrate samples,"ultradiafiltrate, CVVHD with polysulfone hemofilter, HPLC",negligible
same,Caspofungin in urine samples,"urine, patients on CVVHD, HPLC",negligible
